Test results from patent publication US20250353839A1, “POLYMORPH OF BENZO[C]CHROMAN COMPOUND, PREPARATION METHOD THEREFOR AND USE THEREOF” (Reistone Biopharma Company Limited, priority 2022, published 2025).

Legend:
[1] = Dynamic vapor sorption (DVS) hygroscopicity, with XRPD before and after; format: physicochemical; details: for weight gain by hygroscopicity: DVS; for crystal form before and after DVS detection (XRPD): XRPD redetermined after DVS
Description: (§1) Test conditions for the instruments used in experiments of the present disclosure: • 1. X-ray Powder Diffraction, XRPD • Instrument type: Malver Panalytical Aeris X-ray powder diffractometer • Ray: monochromatic Cu-Kα ray (λ=1.54188) • Scanning mode: θ/2θ, Scanning range (2θ range): 3.5-50° • Voltage: 40 kV, Electric current: 15 mA • 2. Differential Scanning calorimetry, DSC • Instrument type: TA DSC250 • Purge gas: Nitrogen; Nitrogen purge rate: 50 mL/min • Heating rate: 10° C./min • Temperature range: 25° C.-300° C. • 3. Thermogravimetric Analysis, TGA • Instrument type: TA TGA550 • Purge gas: Nitrogen; Nitrogen purge rate: 20 ml/min • Heating rate: 10° C./min • Temperature range: 30° C.-350° C. 4. Dynamic vapor sorption (DVS) • Using SMS Intrinsic PLUS, the detection is performed at 25° C., with humidity change of 50%-0%-90% with a step size of 10%, in which the criteria for judging is that the mass change dM/dT for each gradient is less than 0.002%, TMAX is 360 min, and two cycles are performed. • 5. High performance liquid chromatography (HPLC) described in the stability test of the crystal forms of the present disclosure is determined on Agilent 1260 Infinity II.

[2] = Stability (influence factor) test of free base crystal form E, HPLC and XRPD; format: physicochemical; details: for related substances (impurities) by HPLC versus initial: different days
Description: as §1
In the content detection method by the high performance liquid chromatography described in the present disclosure, HPLC conditions are as follows: chromatographic column, Agilent Eclipse Plus C18 4.6 mm*150 mm, 3.5 μm; mobile phase, A-10 mmol/L solution of sodium dihydrogen phosphate (pH 8.0), and B-ACN; flow rate, 1.0 ml/min; wavelength, 210 nm.
In the related substances detection method by the high performance liquid chromatography described in Example 8 of the present disclosure, HPLC conditions are as follows: chromatographic column, Agilent Eclipse Plus C18 4.6 mm*150 mm, 3.5 μm; mobile phase, A-10 mmol/L solution of ammonium acetate, and B-ACN; flow rate, 1.0 ml/min; wavelength, 210 nm.
It is determined whether temperature and humidity have an influence on the stability of free base crystal form E of the compound of formula I.
The free base crystal form E was placed in a stabilizing chamber […] and subjected to influence factor tests using a series of temperature and humidity combinations. After being placed for different days under light and various temperature and humidity conditions, the samples were taken out. The related substances (impurities) were detected by high performance liquid chromatography.
The samples taken out on the last day under light and various temperature and humidity conditions were subjected to XRPD detection, showing that the free base crystal form E had no change and had good stability.

[3] = accelerated experimental conditions (80% RH)
[4] = normal storage conditions (25° C., 60% RH)

SMILES	weight gain by hygroscopicity [1, 3]	weight gain by hygroscopicity ([1]; extreme conditions (90% RH))	weight gain by hygroscopicity [1, 4]	crystal form before and after DVS detection (XRPD) [1]	other results
N#Cc1ccc2c(c1)COc1cc(C[C@@H](C#N)NC(=O)[C@@H]3CNCCCO3)c(F)cc1-2 [crystal form C]	approximately 0.89%	approximately 1.16%	approximately 0.65%	did not change	
N#Cc1ccc2c(c1)COc1cc(C[C@@H](C#N)NC(=O)[C@@H]3CNCCCO3)c(F)cc1-2 [free base crystal form E]					Content (%) of the compound of formula I ([2]; 0 day): 97.45%; Content (%) of the compound of formula I ([2]; 0.5 ICH (light)): 96.07%; Content (%) of the compound of formula I ([2]; 1 ICH (light)): 94.52%; Content (%) of the compound of formula I ([2]; 25° C. RH 92%-1 week): 97.29%; Content (%) of the compound of formula I ([2]; 25° C. RH 92%-2 weeks): 97.5%; Content (%) of the compound of formula I ([2]; 40° C. RH 75%-1 week): 97.36%; Content (%) of the compound of formula I ([2]; 40° C. RH 75%-2 weeks): 97.51%; Content (%) of the compound of formula I ([2]; 60° C.-1 week): 97.25%; Content (%) of the compound of formula I ([2]; 60° C.-2 weeks): 97.55%; related substances (impurities) by HPLC versus initial ([2]; light conditions): impurities increased; crystal form after stability test (XRPD) ([2]; samples of the last day under light and various temperature and humidity conditions): had no change; related substances (impurities) by HPLC versus initial ([2]; various temperature and humidity conditions): no significant increase or only a slight increase
N#Cc1ccc2c(c1)COc1cc(C[C@@H](C#N)NC(=O)[C@@H]3CNCCCO3)c(F)cc1-2 [crystal form A]	approximately 5.39%			did not change	
N#Cc1ccc2c(c1)COc1cc(C[C@@H](C#N)NC(=O)[C@@H]3CNCCCO3)c(F)cc1-2 [crystal form B]	approximately 1.60%	approximately 3.87%	approximately 0.93%	did not change	
N#Cc1ccc2c(c1)COc1cc(C[C@@H](C#N)NC(=O)[C@@H]3CNCCCO3)c(F)cc1-2 [crystal form D]	approximately 0.76%	approximately 0.84%	approximately 0.64%	did not change	
